This note sets out measurements from PubChem BioAssay (NCI).

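Five compound concentrations were applied to cells in 96-well plates for 48 hours; endpoints were derived by simple linear interpolation of the resulting dose-response curve. TGI marks complete inhibition of growth.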

What all share (experiment): NCI tumour cell line growth inhibition, 48 h
For assay [1], the system named is LXFL 529 NSCLC.
Assay [2] concerns 786-0 renal.
The subject of assay [3] is SF-295 CNS.
Assay [4] deals with NCI-H226 lung.
Assay [5] has as its system ACHN renal.
Assay [6] concerns NCI-H460 lung.
In assay [7] the test system is UACC-257 melanoma.
In assay [8] the test system is MDA-MB-435.
Assay [9] has as its system HS 578T breast.
Assay [10] concerns EKVX NSCLC.
Assay [11] deals with KM12 colon.
For assay [12], the system named is SW-620 colon.
Assay [13] has as its system OVCAR-4 ovarian.
Assay [14] relates to K-562 leukemia.
Assay [15] concerns NCI-H23 lung.
Assay [16] concerns MDA-N.
In assay [17] the test system is U251 CNS.
Assay [18] deals with NCI/ADR-RES ovarian.
For assay [19], the system named is SNB-19 CNS.
The subject of assay [20] is UACC-62 melanoma.

As to `C/C(=N\NC(=S)NNC(=S)N(C)c1ccccc1)c1ccccn1`, the TGI in [1] was over 100 µM; in [2], over 47.2 µM; in assay [3] it was over 100 µM; in assay [4] it was 6.85 µM; in assay [5], over 53.6 µM; in assay [6], 29.5 µM. For the same molecule, the TGI in assay [7] is over 100 µM; in assay [8], 25.6 µM; in [9], over 100 µM; in assay [10], 10.7 µM; in assay [11], over 100 µM; in [12], over 100 µM. For the same molecule, the TGI is over 100 µM in assay [13]; over 100 µM in assay [14]; over 100 µM in [15]; over 100 µM in assay [16]; over 100 µM in [17]; 55.4 µM in assay [18]. Besides, the TGI in assay [19] was over 100 µM.

`COc1ccc(CCc2ccccc2CC(=O)O)cc1`: the TGI in [1], in assay [2], in assay [3], in assay [4], in [5] and in [6] was over 100 µM throughout. Besides, the TGI in [7], in assay [20], in assay [10], in [11], in assay [12] and in assay [13] was over 100 µM each time. Also, the TGI in assay [14], in assay [15], in assay [17] and in assay [19] was over 100 µM throughout.
